Assays:
Parameters in all cases: species or system mice
Details in all cases: mouse, in vivo
[1] = system: influenza virus strain A/Texas
[2] = system: Newcastle Disease Virus (NDV) strain Lasota
[3] = system: influenza virus, strain MRC-11

Cholera toxin subunit B [CTB]
specific Ig-producing cells/10^6 cells 3 weeks following first immunization, mean; IgA in the lungs [1]: 961 cells/10^6 cells
anti-NDV Ig-producing cells/10^6 cells 3 weeks following immunization, mean; IgA in the spleen [2]: 84 cells/10^6 cells
anti-NDV Ig-producing cells/10^6 cells 3 weeks following immunization, mean; IgG in the lungs [2]: 10 cells/10^6 cells
anti-NDV Ig-producing cells/10^6 cells 3 weeks following immunization, mean; IgG in the spleen [2]: 8 cells/10^6 cells
anti-NDV Ig-producing cells/10^6 cells 6 weeks following immunization, mean; IgA in the lungs [2]: 23 cells/10^6 cells
anti-NDV Ig-producing cells/10^6 cells 3 weeks following immunization, mean; IgA in the lungs [3]: 82 cells/10^6 cells
